Counter-ions that a name gives are not always drawn.
system: skin; assay type: in vivo, New Zealand white rabbits; conditions: 0.3 ml of aqueous 1 % solution, patch 24 hours, observed 24 hours; four male rabbits
Method: (§1) The primary irritation of the skin and ocular mucous membranes by some test compounds mentioned below was checked according to the test methods mentioned below.
A patch test plaster, into which 0.3 ml of an aqueous 1 % solution of a test compound had been infiltrated, was airtightly stuck on each of four male New Zealand white rabbits and kept as such for 24 hours. […] The compounds tested were evaluated on the basis of the following criteria.

Structure (SMILES) | Primary Skin Irritation
CCCCCCCCCCCCCCCCCC[N+](C)(C)C.[Cl-] [Stearyltrimethylammonium Chloride, reference compound] | Heavy (4 or more)
CCCCCCCCCCCCOCC(O)CNCCCC[C@H](N)C(=O)O (stereo partly drawn) [Compound of Production Example 5, Nε-(2-hydroxy-3-dodecyloxy)propyl-L-lysine hydrochloride] | Minor (Less than 2)
CCCCCCCCCCC(O)CN[C@@H](CCCNC(=N)N)C(=O)O.Cl (stereo partly drawn) [Compound of Production Example 7, N-(2-hydroxydodecyl)-L-arginine hydrochloride] | Minor (Less than 2)

system: ocular mucous membranes; assay type: in vivo, New Zealand white rabbits; conditions: 0.1 ml aqueous solution dropped into eyelid bag, checked 24 hours after; four male rabbits
Method: as §1
The lower eyelids of each of four male New Zealand white rabbits were formed into bags, into which was dropped 0.1 ml of an aqueous surfactant solution, and the upper and lower eyelids were lightly ligated. 24 hours after the dropping, the irritation of the ocular mucous membranes of each rabbit was checked according to the Draize's points mentioned below. The compound tested was evaluated on the basis of the following criteria.

Structure (SMILES) | Primary Mucous Membrane Irritation
CCCCCCCCCCCCCCCCCC[N+](C)(C)C.[Cl-] [Stearyltrimethylammonium Chloride, reference compound] | Moderate (20 to less than 50)
CCCCCCCCCCCCOCC(O)CNCCCC[C@H](N)C(=O)O (stereo partly drawn) [Compound of Production Example 5, Nε-(2-hydroxy-3-dodecyloxy)propyl-L-lysine hydrochloride] | Minor (Less than 10)
CCCCCCCCCCC(O)CN[C@@H](CCCNC(=N)N)C(=O)O.Cl (stereo partly drawn) [Compound of Production Example 7, N-(2-hydroxydodecyl)-L-arginine hydrochloride] | Minor (Less than 10)
